Here are results for two compounds from paper PMC9575645 (Signal Transduction and Targeted Therapy, 2022).

The structures appear in SMILES notation.

The subject of series [1] is proinflammatory cytokines. In words: Proinflammatory cytokines in SARS-CoV-2-infected Vero E6 cells (RT-qPCR, ELISA). The series is classed as cell-based, African green monkey. The note with it: 20 μM. (Quantitative PCR measures a nucleic acid by following its amplification.)
Series [2] in a line: In vivo toxicity in mice (body weight, gross and histopathological organ changes). The settings on record: for gross and histopathological changes in major organs (liver, lung, kidney, heart, spleen): 0.1, 1, or 10 mg kg^-1 d^-1 Bid for 4 consecutive days.
Series [3] relates to lipid droplets (LDs). In words: BODIPY lipid droplet immunofluorescence in SARS-CoV-2-infected Vero E6 cells. The series is classed as cell-based, African green monkey. The settings on record: SARS-CoV-2-infected cells, MOI = 0.1 FFU; 20 µM. As for the experimental part:
(§1) To characterize the dynamics of LD formation, apoptotic and necroptotic cells, and virus infectivity, an IFA was performed with the […], MDCK, Caco-2, Vero E6, MA104, MARC-145, LLC-PK, and HRT-18G cells, infected with or without each virus, and treated with vehicles or chemicals at the different time points (Table S3), or transfected with siRNA or scrambled siRNA as described above.^ 16^,27^,28 Briefly, cells were prepared in 8-well chamber slides infected with IAV, SARS-CoV-2, BCoV, PEDV, RVA, PRRSV, or PSaV at an MOI of 1 (IAV), or MOI of 0.1 (SARS-CoV-2, BCoV, PEDV, RVA, PRRSV, or PSaV) and treated with or without chemicals. […] Subsequently, cells were washed thrice with PBS (pH 7.4) and mounted with SlowFade Gold antifade reagent containing 1 × DAPI solution (Molecular Probes) for nucleus staining, observed with a LSM 800 confocal microscope, and analysed using Zen Blue Software 2.6 (Carl Zeiss; Jena, Germany).
(§2) The number and size of intracellular LDs were measured as described previously.^28 Briefly, four images were taken of each sample and converted into a pixel unit, and the data were processed and quantified using Adobe Photoshop CS6. […] The results were expressed as relative values, where the average number and size of pixels of positive color in virus-infected groups were normalized to those of the mock-treated, mock-infected control.

In series [4] the test system is proinflammatory cytokines. In words: Proinflammatory cytokines in IAV-infected A549 cells (RT-qPCR, ELISA). The series is classed as cell-based, human. The settings on record: 20 μM.
In the next series the test system is MARC. In words: Cytotoxicity, MTT assay, MARC. The series is classed as cell-based, African green monkey. On the procedure: (§3) The cytotoxic effects of the chemicals and their solvents were tested by the MTT assay,[44] and its procedure is described in Supplementary Information.
(§4) The cytotoxic effects of the chemicals and their solvents used were tested by the MTT assay as described previously.^10 In brief, the chemicals were dissolved in DMSO to a stock concentration of 10 mM, and then freshly serially diluted in serum-free medium before being added to cell culture monolayers. The absorbance was measured using an enzyme-linked immunosorbent assay (ELISA) reader at an optical density (OD) of 570 nm. The percent cell viability was calculated using the following formula, [(ODsample˗ODblank)/(ODcontrol˗ODblank)] × 100%. According to the cell cytotoxicity data, dose-response curves were generated for the calculation of CC50 using GraphPad Prism software version 8.4.2.
(Tetrazolium dyes change colour on reduction, which living cells bring about.)

The test system of series [5] is Species A Rotavirus (NCDV). The settings on record: for IC50: Species A Rotavirus (NCDV), MA104 cells.
For the next series, the system named is IAV HA and M2 proteins. The series is classed as cell-based, Influenza A virus.
The subject of a further series is A549. The series can be described thus: Cytotoxicity, MTT assay, A549. The series is classed as cell-based, human. On the procedure: as §3, §4
For series [6], the system named is lipid droplets (LDs). The series can be described thus: BODIPY lipid droplet immunofluorescence in IAV-infected A549 cells. The series is classed as cell-based, human. The note with it: MOI = 1 FFU. As for the experimental part: as §1, §2
Series [7] has as its system Influenza A virus (H1N1) (PR8). The settings on record: for SI (CC50/IC50) / IC50: Influenza A virus (H1N1) (PR8); for IC50: A549 cells.

In the case of `CN(C)C(=O)Nc1cccc(-c2ccc(N(C)C)cc2)c1` [Atglistatin], the “levels of TNF-α, IL-6, and MCP-1” value in [1] is on record as “markedly reduced”. Further, the “gross and histopathological changes in major organs (liver, lung, kidney, heart, spleen)” value in [2] was “no gross and histopathological changes”. The “overt signs of toxicity, including loss of body weight” value in series [2] (intraperitoneal 10 mg kg^-1 d^-1) was “did not induce any overt signs of toxicity”. For the same compound, the “intracellular LDs (BODIPY)” value in the series on lipid droplets (LDs) [3] and in the series with lipid droplets (LDs) [6] was “Retention of LDs” throughout. Also, the “proinflammatory cytokines IFN-α, IFN-β, TNF-α, IL-6, MCP-1” value in [4] was “significantly reduced”. In addition, the values for the CC50 with MARC and with A549 were 212 ± 3.5 µM and 206 ± 3 µM, respectively. Also, the “SI (CC50/IC50)” value in [5] is reported as 32; in [7], 251. Moreover, the values for the IC50 in [5] and in series [7] were 6.7 ± 0.49 µM and 0.82 ± 0.08 µM, respectively. For the same compound, the “palmitoylation of IAV HA and M2 proteins” value with IAV HA and M2 proteins is “significantly inhibited”. In addition, the “virus replication (genome copy number, infectious progeny)” value in series [7] is listed as “inhibiting the replication”.
On to `COc1nn(-c2ccc(NC(=O)OCc3ccccc3)c(C)c2)c(=O)o1` [CAY10499], for which the “levels of TNF-α, IL-6, and MCP-1” value in series [1] is recorded as “markedly reduced”. In addition, the “gross and histopathological changes in major organs (liver, lung, kidney, heart, spleen)” value in series [2] was “no gross and histopathological changes”. Further, the “intracellular LDs (BODIPY)” value in the series on lipid droplets (LDs) [3] and with lipid droplets (LDs) [6] was “Retention of LDs” throughout. The “proinflammatory cytokines IFN-α, IFN-β, TNF-α, IL-6, MCP-1” value in series [4] was “significantly reduced”. Moreover, the CC50 in the series with MARC is 101 ± 4 µM; with A549, 106 ± 8.9 µM. Also, the “SI (CC50/IC50)” value in series [5] is 5; in series [7], 27. The IC50 in [5] is 20.9 ± 5.06 µM; in [7], 4.13 ± 0.46 µM. In the series with IAV HA and M2 proteins, the “palmitoylation of IAV HA and M2 proteins” value was “significantly inhibited”. The “virus replication (genome copy number, infectious progeny)” value in [7] is given as “inhibiting the replication”.

For orientation: CC50 means the concentration that lowers cell viability or growth by half. The low end stands for greater toxicity to the cells, the high end for lower toxicity to the cells. One may read the IC50 as the concentration that gives 50% inhibition. The low end stands for higher potency, the high end for lower potency.
